Reference: patent US20230106506A1, “NOVEL PqsR INVERSE AGONISTS” (Helmholtz-Zentrum Fur Infektionsforschung GmbH, priority 2020, published 2023)

What was measured:
[1] = Kinetic turbidimetric aqueous solubility; format: physicochemical; settings: aqueous buffer, kinetic from dmso stock; PBS buffer, final DMSO 2%, absorbance 620 nm; read-out: Kinetic Turbidimetric Aqueous Solubility at room temperature for 5 min
Description: Kinetic Turbidimetric Aqueous Solubility at room temperature for 5 min. […] Data was analyzed by fitting a four parameter sigmoidal function to the measured and normalized absorbances and AUC calculation providing access to Log S (decadic logarithm of the solubility).

[2] = Metabolic stability in mouse liver microsomes (MLM); format: in vitro ADME; settings: 1 μM compound, 0.5 mg/mL MLM, 1 mM NADPH, 37° C., read-out: half-life (t1/2) towards MLM
Description: For the evaluation of phase I metabolic stability, the compound (1 μM) was incubated with 0.5 mg/mL MLM (Corning) and 1 mM NADPH at 37° C. for 0, 5, 10, 15 and 30 min. The metabolic stability of Verapamil, Diphenhydramine and Benzydamine (1 μM each) were determined in parallel to confirm the enzymatic activity of the MLM. The incubation was stopped by addition of 2 volumes of acetonitrile containing internal standard (1 μM Leucine Enkephaline). Samples were centrifuged (15 min, 3,500 rpm). Concentration of the remaining test compound at the different time points was analyzed by HPLC-MS/MS and used to determine half-life (t1/2).

[3] = system: P. aeruginosa pyocyanin production; experiment: Pyocyanin assay; format: cell-based, P. aeruginosa strain PA14; settings: Pseudomonas aeruginosa, PA14, 16 h, read-out: IC50-value towards pyocyanin production
Description: Inhibition of P. aeruginosa pyocyanin production by compounds was determined photometrically as described before. In short, an overnight culture of PA14 in PPGAS medium was washed, diluted in medium to a start OD600 of 0.02, and incubated for 16 h (37° C., 200 rpm, relative humidity 75%) in the presence of test compounds. Then, cultures were extracted with chloroform and re-extracted with 0.2 M HCl. Protonated red colored pyocyanin was determined by measuring OD520 and normalizing to OD600.

[4] = molecular target: T1, PqsR (Pseudomonas aeruginosa, UniProt Q9I4X0); experiment: PqsR reporter gene assay in E. coli (β-galactosidase); format: cell-based
T1 construct: transfected with pEAL08-2 plasmid encoding pqsR under control of promoter tac; expressed in transfected cells; host or cells: Escherichia coli DH5alpha carrying pEAL08-2
T1 sequence (Q9I4X0 whole entry): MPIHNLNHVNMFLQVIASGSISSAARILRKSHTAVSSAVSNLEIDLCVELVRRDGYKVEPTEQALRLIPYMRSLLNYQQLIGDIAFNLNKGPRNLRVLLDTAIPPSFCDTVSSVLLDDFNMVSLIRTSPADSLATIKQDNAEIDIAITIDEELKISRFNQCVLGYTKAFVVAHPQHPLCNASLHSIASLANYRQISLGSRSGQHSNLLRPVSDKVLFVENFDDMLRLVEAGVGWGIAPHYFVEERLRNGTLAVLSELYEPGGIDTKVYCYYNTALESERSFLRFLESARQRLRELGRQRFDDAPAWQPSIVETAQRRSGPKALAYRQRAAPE
Description: Inhibition of pqsR-dependent gene expression of test compounds was determined in an E. coli based β-galactosidase reporter gene assay. Escherichia coli DH5α was transfected with pEAL08-2 plasmid encoding pqsR under control of promoter tac and β-galactosidase reporter gene lacZ under control of promoter pqsA. Antagonistic effects of compounds were evaluated in the presence of/in competition to 50 nM PQS. A positive control was used to ensure the reliability of individual assays. First, PQS was diluted in methanol and added to the wells of a glass coated 96-deep-well plate, and the solvent was evaporated. Then, compounds were added in 5 μL DMSO to final concentrations of 0.001-10 μM. Overnight cultures of E. coli DH5a×pEAL08-2 were diluted 1:100 in LB medium with ampicillin (50 μg/ml) and incubated at 37° C. with shaking until it reached an OD600 of 0.2. Finally, 995 μL of culture was added to each well and the β-galactosidase activity was determined by ortho-nitrophenyl-β-galactoside conversion in permeabilized cells after a 2.5 h incubation period (37° C., 180 rpm). OD600, OD420, and OD550 were measured using POLARstar Omega (BMG Labtech, Ortenberg, Germany), and the activity was expressed as ratio of the slope of β-galactosidase activity between basal control (no PQS) and solvent control, IC50 values of antagonists were determined by variation of the concentration of the test compounds.

SMILES	solubility at 5 min [1] [µM]	half-life at 1 µM [2] [h]	IC50 [3] [nM]	IC50 [4] [nM]
CC(C)Oc1ccc(-c2ncc(CNc3cc(-c4cn[nH]c4)nc(C(F)(F)F)c3)cn2)cc1Cl [Compound 48, N-((2-(3-Chloro-4-isopropoxyphenyl)pyrimidin-5-yl)methyl)-2-(1H-pyrazol-4-yl)-6-(trifluoromethyl)pyridin-4-amine]	> 25	> 1.67	101 to 200	≤ 50
FC(F)(F)c1cc(SCc2nc3cc(Oc4ccccc4)ccc3[nH]2)cc(-n2cncn2)n1 [Compound 66, 2-(((2-(1H-1,2,4-Triazol-1-yl)-6-(trifluoromethyl)pyridin-4-yl)thio)methy)-5-phenoxy-1H-benzo[d]imidazole]	> 10	–	101 to 200	≤ 50
CC(C)Oc1ccc(-c2ncc(CNc3cc(C#N)nc(-c4cn[nH]c4)c3)s2)cc1 [Compound 12, 4-(((2-(4-Isopropoxyphenyl)thiazol-5 yl)methyl)amino)-6-(1H-pyrazol-4-yl)picolinonitrile]	> 10	0.5 to 1	≤ 100	≤ 50
CC(C)Oc1ccc(-n2cc(CNc3cc(-c4cccnc4)nc(C(F)(F)F)c3)nn2)cc1Cl [Compound 67, N-((1-(3-Chloro-4-isopropoxyphenyl)-1H-1,2,3-triazol-4-yl)methyl)-6-(trifluoromethyl)-[2,3′-bipyridin]-4-amine]	–	–	–	51 to 250
CC(C)Oc1ccc(-c2ncc(CNc3cc(-n4ccnc4)nc(C(F)(F)F)c3)s2)cc1Cl [Compound 16, N-((2-(3-Chloro-4-isopropoxyphenyl)thiazol-5-yl)methyl)-2-(1H-imidazol-1-yl)-6-(trifluoromethyl)pyridin-4-amine]	–	> 1.67	101 to 200	51 to 250
Cn1cc(-c2cc(SCc3nc4cc(Oc5ccccc5)ccc4[nH]3)cc(C(F)(F)F)n2)cn1 [Compound 65, 2-(((2-(1-Methyl-1H-pyrazol-4-yl)-6-(trifluoromethyl)pyridin-4-yl)thio)methyl)-5-phenoxy-1H-benzo[d]imidazole]	> 10	–	–	51 to 250
FC(F)(F)c1cc(NCc2cn(-c3ccc(Oc4ccccc4)cc3)nn2)cc(-n2ccnc2)n1 [Compound 02, 2-(1H-Imidazol-1-yl)-N-((1-(4-phenoxyphenyl)-1H-1,2,3-triazol-4-yl)methyl)-6-(trifluoromethyl)pyridin-4-amine]	> 25	–	201 to 500	≤ 50
CC(C)Oc1ccc(-c2ccc(CNc3cc(-c4cn[nH]c4)nc(C(F)(F)F)c3)cn2)cc1Cl [Compound 23, N-((6-(3-Chloro-4-isopropoxyphenyl)pyridin-3-yl)methyl)-2-(1H-pyrazol-4-yl)-6-(trifluoromethyl)pyridin-4-amine]	> 25	> 1.67	201 to 500	–
CC(C)Oc1ccc(-c2ccc(CNc3cc(-c4cn[nH]c4)nc(C(F)(F)F)c3)nn2)cc1Cl [Compound 58, N-((6-(3-Chloro-4-isopropoxyphenyl)pyridazin-3-yl)methyl)-2-(1H-pyrazol-4-yl)-6-(trifluoromethyl)pyridin-4-amine]	> 25	> 1.67	101 to 200	–
CC(C)Oc1ccc(-c2cnc(CNc3cc(-c4cn[nH]c4)nc(C(F)(F)F)c3)nc2)cc1Cl [Compound 47, N-((5-(3-Chloro-4-isopropoxyphenyl)pyrimidin-2-yl)methyl)-2-(1H-pyrazol-4-yl)-6-(trifluoromethyl)pyridin-4-amine]	> 10	0.5 to 1	201 to 500	–
FC(F)(F)c1cc(NCc2cn(-c3ccc(Oc4ccccc4)cc3)nn2)cc(-c2cn[nH]c2)n1 [Compound 01]	> 25	–	101 to 200	51 to 250
CC(C)Oc1ccc(-n2cc(CNc3cc(C#N)nc(-c4cn[nH]c4)c3)nn2)cc1Cl [Compound 09, 4-(((1-(3-Chloro-4-isopropoxyphenyl)-1H-1,2,3-triazol-4-yl)methyl)amino)-6-(1H-pyrazol-4-yl)picolinonitrile]	> 10	–	201 to 500	≤ 50
FC(F)(F)c1cc(NCc2cnc(-c3ccc(Cl)c(Cl)c3)nc2)cc(-c2cn[nH]c2)n1 [Compound 35, N-((2-(3,4-Dichlorophenyl)pyrimidin-5-yl)methyl)-2-(1H-pyrazol-4-yl)-6-(trifluoromethyl)pyridin-4-amine]	> 10	> 1.67	101 to 200	–
CC(C)Oc1ccc(-c2cnc(CNc3cc(-c4cn[nH]c4)nc(C(F)(F)F)c3)cn2)cc1 [Compound 27, N-((5-(4-Isopropoxyphenyl)pyrazin-2-yl)methyl)-2-(1H-pyrazol-4-yl)-6-(trifluoromethyl)pyridin-4-amine]	> 25	> 1.67	101 to 200	–
CC(C)Oc1ccc(-c2ncc(CNc3cc(-c4cc[nH]n4)nc(C(F)(F)F)c3)cn2)cc1 [Compound 31, N-((2-(4-Isopropoxyphenyl)pyrimidin-5-yl)methyl)-2-(1H-pyrazol-3-yl)-6-(trifluoromethyl)pyridin-4-amine]	> 10	> 1.67	201 to 500	–
CC(C)Oc1ccc(-n2cc(CNc3cc(Cl)nc(-c4cn[nH]c4)c3)nn2)cc1Cl [Compound 08, 2-Chloro-N-((1-(3-chloro-4-isopropoxyphenyl)-1H-1,2,3-triazol-4-yl)methyl)-6-(1H-pyrazol-4-yl)pyridin-4-amine]	> 25	–	201 to 500	≤ 50
CC(C)Oc1ccc(-c2ncc(CNc3cc(-n4cncn4)nc(C(F)(F)F)c3)s2)cc1Cl [Compound 18, N-((2-(3-Chloro-4-isopropoxyphenyl)thiazol-5-yl)methyl)-2-(7H-1,2,4-triazol-1-yl)-6-(trifluoromethyl)pyridin-4-amine]	–	> 1.67	≤ 100	≤ 50
CC(C)Oc1ccc(-c2cnc(CNc3cc(-c4cn[nH]c4)nc(C(F)(F)F)c3)cn2)cc1Cl [Compound 57, N-((5-(3-Chloro-4-isopropoxyphenyl)pyrazin-2-yl)methyl)-2-(1H-pyrazol-4-yl)-6-(trifluoromethyl)pyridin-4-amine]	> 25	> 1.67	101 to 200	–
FC(F)(F)c1cc(NCc2cnc(-c3ccc(Cl)cc3)nc2)cc(-c2cn[nH]c2)n1 [Compound 33, N-((2-(4-Chlorophenyl)pyrimidin-5-yl)methyl)-2-(1H-pyrazol-4-yl)-6-(trifluoromethyl)pyridin-4-amine]	> 10	1.02 to 1.67	201 to 500	–
CC(C)Oc1ccc(-c2ncc(CNc3cc(-c4cn[nH]c4)nc(C(F)(F)F)c3)cn2)cc1 [Compound 28, N-((2-(4-Isopropoxyphenyl)pyrimidin-5-yl)methyl)-2-(1H-pyrazol-4-yl)-6-(trifluoromethyl)pyridin-4-amine]	> 25	1.02 to 1.67	≤ 100	–
FC(F)(F)Oc1ccc(-c2ncc(CNc3cc(-c4cn[nH]c4)nc(C(F)(F)F)c3)cn2)cc1 [Compound 55, 2-(1H-Pyrazol-4-yl)-N-((2-(4-(trifluoromethoxy)phenyl)pyrimidin-5-yl)methyl)-6-(trifluoromethyl)pyridin-4-amine]	> 10	> 1.67	201 to 500	–
CC(C)Oc1ccc(-c2ccc(CNc3cc(-c4cn[nH]c4)nc(C(F)(F)F)c3)cn2)cc1 [Compound 21, N-((6-(4-Isopropoxyphenyl)pyridin-3-yl)methyl)-2-(1H-pyrazol-4-yl)-6-(trifluoromethyl)pyridin-4-amine]	> 25	> 1.67	101 to 200	–
